These results are taken from patent publication US11786597B2, “Ionic liquids for transdermal drug delivery” (priority 2013, dated 2023).

Read-outs that look alike come from different tables or passages of the source. Marks after values point to notes of the source that are not given here.

The nature of data set [1]: Calculations of molarity and ionic strength. It is filed as physicochemical. To be noted: neat IL, Table 5.
Data set [2] deals with porcine skin. In words: Skin transport of 3H-Cefadroxil in Franz diffusion cell. It is filed as in vitro ADME. As to conditions: spiked with Cefadroxil. On the procedure: (§1) FIG. 1 is a schematic of the skin transport experiment set-up and analysis. Porcine skin was loaded into the Franz diffusion cell (FDC) with the stratum corneum (SC) facing up. Skin was incubated in contact with 3H-labeled drug dissolved in donor solution for 24 hrs, at 37° C., with stirring. After 24 hrs the donor solution was removed and skin thoroughly washed. The SC was separated from the epidermis by tape stripping. Ten tape strips were applied, each tape corresponding to 1 “layer” of SC. Ten tape strips were assumed to remove the entire SC. Epidermis was separated from dermis using a razor blade. Acceptor solution was collected, and drug transport into various tissue layers was quantified by scintillation counter.
3H-labeled Mannitol and Cefadroxil were obtained from American Radiolabeled Chemicals, Inc. and Moravek, respectively. FDCs were used to assess the transport enhancement of ionic liquids using a previously established protocol. Karande, et al., “Discovery of transdermal penetration enhancers by high-throughput screening”, Nat Biotechnol, 22(2): 192-7 (2004). […]
SC was separated from epidermis by tape stripping. […] Samples from each tissue layer and acceptor solution were dissolved in Soluble (Perkin Elmer, Waltham, MA) overnight and the concentration of radiolabeled solute was measured using a scintillation counter (Packard Tri-Carb 2100 TR, Meriden, CT).

Data set [3] can be described thus: Density (volumetric flask and balance). The format is physicochemical. On the procedure: (§2) Determinations of conductivity were made on an ION450 benchtop meter (Radiometer Analytical) with a 2-pole electrode designed for use in viscous liquids (Radiometer Analytical CDC241-9) and calibrated with KCl. Conductivity was measured three times per sample on stirred 3 mL volumes of neat IL at 25° C. Density was measured three times per IL using a 1 mL volumetric flask and an analytical balance.

A further data set in a line: Conductivity of neat IL. It is filed as physicochemical. On the procedure:
as §2

Data set [4] in a line: Determination of lipophilicity (octanol/water distribution by UV absorbance). It is filed as physicochemical. To be noted: for percent in octanol: after extraction with water. As for the experimental part: A 250 mL volume of n-octanol was shaken with 100 mL of ddH2O and left overnight. […]
The absorption of the octanol layer and water layers were measured and compared with the absorbance of the stock solutions. Measurements were repeated three times and the distribution coefficients were reported as the average. The percent of IL in octanol was calculated as the absorbance of the octanol layer after extraction divided by the absorbance of IL in octanol before extraction. The water/octanol distribution coefficient was calculated as the logarithm of the percent of IL in octanol divided by the percent of IL in water.

The test system of data set [5] is porcine skin. Nature of the data set: Skin transport of 3H-Mannitol in Franz diffusion cell. It is filed as in vitro ADME. To be noted: for drug permeation into the SC: 24 hr, 37° C. On the procedure:
as §1
3H-labeled Mannitol and Cefadroxil were obtained from American Radiolabeled Chemicals, Inc. and Moravek, respectively. FDCs were used to assess the transport enhancement of ionic liquids using a previously established protocol. Karande, et al., “Discovery of transdermal penetration enhancers by high-throughput screening”, Nat Biotechnol, 22(2): 192-7 (2004). Briefly, the acceptor chamber was filled with degassed PBS and a small stir bar added. Thawed porcine skin was clamped in place between the acceptor and donor chambers with the SC facing up. Care was taken to ensure no air bubbles resided in the acceptor chamber. Ionic liquids or PBS (control) were spiked with 3H-labeled drug (Mannitol and Cefadroxil) to a final concentration of 10 μCi/ml. 300 μL of donor solution was added to the donor chamber and incubated in contact with the SC for 24 hr, at 37° C., with stirring.
After 24 hr, the donor solution was removed, and the skin was thoroughly washed and dried.
SC was separated from epidermis by tape stripping. Ten tape strips were performed in an identical fashion, with each tape corresponding to 1 SC “layer”. Ten strips were assumed to remove the majority of the SC. Epidermis was separated from dermis with a razor blade, and the acceptor solution was collected from the acceptor chamber. Samples from each tissue layer and acceptor solution were dissolved in Soluble (Perkin Elmer, Waltham, MA) overnight and the concentration of radiolabeled solute was measured using a scintillation counter (Packard Tri-Carb 2100 TR, Meriden, CT).

Data set [6] can be described thus: Viscosity (Viscolab 3000 viscometer). The format is physicochemical. As for the experimental part:
Viscosity was measured on 1 mL samples with a Viscolab 3000 viscometer (Cambridge Viscosity, Medford, MA). […] Low-temperature differential scanning calorimetry (DSC) was performed on a DSC882e instrument (Mettler-Toledo Inc., Columbus, Ohio) under N2 atmosphere over two complete scans of a temperature range of −60 to 120° C. with a ramp rate of 10° C. per minute and a sample size of 18-21 mg in an aluminum crucible.

Data set [7] is described as follows: Solubility in water (physical characterization).
Data set [8] has as its system Normal human bronchial epithelial (NHBE) cells. Nature of the data set: WST-1 proliferation assay, 24 h exposure to diluted ILs. To be noted: for IC50: Homo sapiens, NHBE. As for the experimental part: Normal human bronchial epithelial (NHBE) cells were purchased (Lonza, Walkersville, MD) and cultured using bronchial epithelial cell growth media (BEGM, Clonetics Bullet Kit, Lonza, Walkersville, MD) on 100 mm tissue culture treated Petri dishes (Santa Cruz Biotechnologies, Santa Cruz, CA) coated with 50 μg/mL type I rat tail collagen (BD Biosciences, Bedford, MA). Cells were stored in an incubator with a humidified atmosphere at 37° C. and 5% CO2. Cells were fed two times weekly and passaged via trypsinization. Experimentation was performed in triplicate on cells harvested from passages 3 to 7.
NHBE cells were plated in 96-well tissue culture plates at a concentration of 1.5×10^4 cells/well in a volume of 200 μL and allowed to acclimate overnight. On the day of experimentation, treatment plates were prepared using stock ionic liquid diluted in BEGM and then serially diluted 3-fold for a total of 7 concentrations. The 96-well plates containing cells were then aspirated and the treatments (150 μL/well) were carefully transferred from the prep plate to the cells. Cells were exposed to the ionic liquids for 24 hours. Two hours prior to the end of the exposure time, positive control cell wells were aspirated, and a solution of 1% Triton-100 (150 μL/well) was added.
To assess cellular proliferation, water-soluble tetrazolium (WST-1) reagent (Clontech, Mountain View, CA) was added directly to cells, at a 1:10 dilution of the remaining media volume (7.5 μL of WST-1 reagent was added per 75 μL remaining cell culture media). NHBE cells exposed to media only and 1% Triton in BEGM were included as controls. Ionic liquid controls at the highest concentrations tested were included in wells without cells to rule out ionic liquid/assay reagent interference.

For data set [9] the following is noted: Abbott et al. 2006; cited from earlier work.
Data set [10] deals with S. enterica (Salmonella) biofilm. To be noted: neat IL.
The test system of data set [11] is P. aeruginosa (Pseudomonas) biofilm. To be noted: neat IL.

The density is mass per unit of volume. A word on the viscosity: it is the resistance of a fluid to flow. The low end stands for a thin fluid, the high end for a thick fluid. For choline geranate [LANL-21], the ionic strength in [1] is listed as 3.39 M. In data set [1], the molarity was 2.26 M. In the data set with porcine skin [2], the “partitioning into the dermis and acceptor solution versus control (PBS)” value was 15-20 times. In addition, the density in data set [3] (25° C.) and in data set [3] (Table 5) was 0.990 g/mL each time. Moreover, the conductivity in “Conductivity of neat IL” (25° C.) is 0.0431 mS/cm; in the data set “Conductivity of neat IL” (Table 5), 0.0431 mS/cm; in the data set “Conductivity of neat IL” (text b172), 0.04 mS/cm. In addition, the “log Po/w” value in data set [4] is on record as 0.28. For the same compound, the percent in octanol in data set [4] (Table 3) is 66 +/− 3%. In addition, the “loss/partitioning of solute to the acceptor solution” value with porcine skin [5] (3H-Mannitol) is given as “enhanced partitioning into the acceptor solution”. In addition, the “transport enhancement into/through all layers of the skin” value in the data set on porcine skin [5] (3H-Mannitol, relative to PBS control) was 5-15 fold. Further, the “skin transport properties” value in the data set with porcine skin [5] (materials in lower right portion of Walden plot) is given as “best skin transport properties”. Moreover, the viscosity in data set [6] (25° C.) and in data set [6] (Table 5) was 1345 cP throughout.

As to `C[N+](C)(C)CCO.NC(N)=O.NC(N)=O.[Cl-]` [LANL-6, urea-choline], the ionic strength in data set [1] was 2.32 M. Also, in data set [1], the molarity was 4.65 M. Also, the density in [3] (25° C.) and in data set [3] (Table 5) was 1.21 g/mL each time. In addition, the conductivity in “Conductivity of neat IL” (25° C.) is given as 0.580 mS/cm; in “Conductivity of neat IL” (Table 5) it was 0.580^a mS/cm. The “partitioning into octanol” value in data set [4] was “partitioned poorly into octanol”. Further, the percent in octanol in data set [4] (Table 3) is given as 24 +/− 8%. Moreover, the “log Po/w” value in data set [4] (octanol/water, Table 3) is listed as −0.51. Moreover, in the data set with porcine skin [5] (3H-Mannitol), the “drug permeation into the SC” value is “inhibited drug permeation into the SC”. Moreover, in [7] (25° C.), the “solubility in water” value was “miscible”. In addition, the “toxicity to human primary cells” value in data set [8] (solubilized in culture medium) is reported as “low toxicity”. Further, the viscosity is reported as 1390 cP in data set [6] (25° C.), 1386^a cP in data set [6] (Table 5) and 1390 cP in data set [6] (text b171). For the same compound, in data set [6] (40° C.), the “viscosity at 40° C.” value is reported as 170 cP. Besides, in [9], the “viscosity, literature value at 40° C.” value is on record as 169 cP.

For the compound choline hexanoate [LANL-13], the ionic strength in data set [1] is 3.02 M. For the same compound, the molarity in [1] was 3.02 M. Further, the density in data set [3] (25° C.) and in [3] (Table 5) was 1.01 g/mL each time. The conductivity in “Conductivity of neat IL” (25° C.), in the data set “Conductivity of neat IL” (Table 5) and in the data set “Conductivity of neat IL” (text b172) was 0.816 mS/cm throughout. Further, in [4] (Table 3), the percent in octanol is reported as 51 +/− 2%. For the same compound, the “drug permeation into the SC” value in the data set on porcine skin [5] (3H-Mannitol) is given as “inhibited drug permeation into the SC”. In addition, the “anti-biofilm efficacy” value in [10] and in [11] was “effective” in each case. Besides, in data set [8], the “toxicity to human primary cells” value is listed as “low toxicity”. Further, the viscosity in [6] (25° C.) turned out to be 181 cP; in data set [6] (Table 5), 180.9 cP.

What is called logP is the decadic logarithm of the partition coefficient of the neutral form, usually between octanol and water. For orientation: solubility means the dissolved amount per volume that the medium holds. A lower solubility goes with a poorly soluble substance. By IC50 is commonly meant the midpoint of a concentration-inhibition curve. On to `CCCCCCn1cc[n+](C)c1.[Cl-]` [LANL-7, 1-Hexyl-3-Methylimidazolium Chloride], for which the ionic strength in [1] is recorded as 4.96 M. Besides, in [1], the molarity is 4.96 M. Further, the density in [3] (25° C.) is on record as 1.005 g/mL; in [3] (Table 5) it was 1.01 g/mL. Further, the conductivity in “Conductivity of neat IL” (25° C.) and in “Conductivity of neat IL” (Table 5) was 0.340 mS/cm each time. In addition, the percent in octanol in [4] (Table 3) is on record as 52 +/− 9%. For the same compound, in data set [4] (n-octanol/water, octanol/water, Table 3), the logP came to 0.04. Further, the “anti-biofilm efficacy” value in [10] and in data set [11] was “effective” in each case. This compound also yielded a solubility in data set [7] (water, 25 °C) of 700 mM. For the same compound, the IC50 is 10 mM in [8] and 10 mM in data set [8] (24 h, read-out: IC50 at 24 h). Moreover, the “toxicity to human primary cells” value in [8] (solubilized in culture medium) is “low toxicity”. Also, the viscosity in data set [6] (25° C.) is on record as 680 cP; in [6] (Table 5), 679.5 cP.
